Assay results taken from EP1289507B1, “USE OF AN ALDOSTERONE ANTAGONIST FOR THE TREATMENT OR PROPHYLAXIS OF ALDOSTERONE-MEDIATED PATHOGENIC EFFECTS” (priority 2000, dated 2001).
Read-outs that look alike come from different tables or passages of the source.

Key:
[1] = Physical stability of solid state forms; assay type: physicochemical; settings: at temperatures below the enantiotropic transition temperature
[2] = test system: captopril-treated, saline-drinking SHRSP; experiment: Protocol 2: Angiotensin II-induced renal damage in captopril-treated saline-drinking SHRSP; assay type: in vivo, male SHRSP/A3N
Method: Animals. Studies were conducted in accordance with institutional guidelines using male SHRSP/A3N (generations F-75 to F-78), n = 37, from our local colony. These animals were bred from NIH stock, derived from the SHRSP/A3N substrain described originally by Okamoto and coworkers (Okamoto K et al. Circ. Res. 34 and 35 (suppl I):I-143-I-153.). All animals were housed in a room maintained on a 12:12-h light:dark-cycle and an ambient temperature of 22 ± 1°C in the Animal Care Facility at New York Medical College. Rats were weaned at 4 weeks of age and allowed free access to Purina Lab Chow 5001 (Ralston Purina, St. Louis, MO) and tap water until the initiation of experimental protocols.
SHRSP were placed on Stroke-Prone Rodent Diet (#39-288, Zeigler Bros Inc., Gardners, PA) and 1% NaCl drinking solution ad libitum starting at 8.3 weeks of age. […] Animals were handled and weighed daily. Urine samples were collected for the assessment of proteinuria. Systolic blood pressure and heart rate were measured each week. After 2 weeks of treatment, animals were decapitated, trunk blood was collected into chilled EDTA tubes, and the kidneys were removed, blotted dry, and immediately weighed. Coronal sections of kidney were fixed and later processed for light microscopic evaluation.
Assays and Analyses. Systolic blood pressure and heart rate of awake animals were measured by tail-cuff plethysmography using a Natsume KN-210 manometer and tachometer (Peninsula Laboratories Inc., Belmont, CA). Rats were warmed at 37°C for 10 min and allowed to rest quietly in a Lucite chamber before measurement of blood pressure. Measurements of urine volume were made gravimetrically. Urinary protein concentration was determined by the sulfosalicylic acid turbidity method. Plasma aldosterone was measured by radioimmunoassay using ^125I-aldosterone as a tracer (Coat-a Count Aldosterone, Diagnostic Products Co., Los Angeles, CA).
Histology. Kidneys were preserved in 10% phosphate-buffered formalin. Coronal sections (2-3 µm) were stained with hematoxylin and eosin and examined by light microscopy in a blinded fashion as previously described (Stier CT et al. J Pharmacol Exp Ther (1992) 260:1410-1415). Glomerular damage was categorized as ischemic or thrombotic. Ischemic lesions were defined as retraction of glomerular capillary tufts with or without appreciable mesangiolysis. Glomerular thrombotic lesions were defined as any one of a combination of the following: segmental to global fibrinoid necrosis, focal thrombosis of glomerular capillaries, swelling and proliferation of intracapillary (endothelial and mesangial) and/or extracapillary cells (crescents), and expansion of reticulated mesangial matrix with or without significant hypercellularity. […] Vascular thrombotic lesions were defined as any one or a combination of the following: mural fibrinoid necrosis, extravasation and fragmentation of red blood cells, and luminal and/or mural thrombosis. Proliferative arteriopathy was characterized by proliferation of markedly swollen myointimal cells with swollen round to ovoid vesicular nuclei surrounded by mucinous extracellular matrix ("onion skinning") often resulting in nodular thickening. Vascular damage was expressed as the number of arteries and arterioles with lesions per 100 glomeruli. The presence of casts and tubular (ischemic) retraction and simplification was assessed semiquantitatively.
Statistical Analysis. Significant effects with respect to treatment and time were determined by two-way analysis of variance. Data with only one grouping variable were analyzed statistically by Student's unpaired t tests. When more than two groups were compared, one-way analysis of variance was performed followed by the post-hoc Newman-Keul's multiple comparison test. Data were analyzed using version 2.01 of the GraphPad Prism statistical software package (GraphPad Software Inc., San Diego, CA). P < .05 was considered statistically significant. Data are reported as mean ± SEM.

[3] = test system: patients with hypertension; experiment: Clinical efficacy in hypertension: randomized double-blind study, cuff and ambulatory blood pressure; assay type: in vivo; settings: 100 mg/day (50 BID)
Method: A multicenter, randomized, double-blind, parallel group study was conducted in patients with hypertension. […] The study consisted of a two-week pretreatment period for completion of screening procedures and discontinuation of any current antihypertensive medication(s). The screening period was followed by a four-week single-blind placebo lead-in treatment period.
The primary efficacy measure was the change from baseline in cuff diastolic blood pressure measured at trough as compared to placebo. Secondary efficacy measures included changes in cuff assessed trough systolic blood pressure and changes in average 24-hour diastolic and systolic blood pressure assessed by ambulatory blood pressure monitoring. Safety was assessed by conducting routine clinical lab tests, physical exams, ECGs, and monitoring for adverse events.

[4] = test system: Volume Expanded Hypertensive Rats; settings: averaged for 24 hours after three weeks
[5] = test system: patients with severe heart failure; settings: added to ACE inhibitor plus loop diuretic; cited from earlier work
[6] = test system: patients with severe heart failure; settings: NYHA Functional Class IV, enalapril plus diuretics compared to placebo plus diuretics; cited from earlier work

COC(=O)[C@@H]1CC2=CC(=O)CC[C@]2(C)[C@@]23O[C@@H]2C[C@@]2(C)[C@@H](CC[C@@]24CCC(=O)O4)[C@H]13 [Form L]
physical stability relative to Form H [1]: greater physical stability

C[C@H](CS)C(=O)N1CCC[C@H]1C(=O)O [Captopril, captopril, reference compound]
Glomerular damage, Ischemic ([2]; Captopril 50 mg/kg/d + vehicle, or CAP, Angiotensin II 25 ng/min + Eplerenone 100 mg/kg/d, 2 weeks): 0 ± 0 lesions/100 glomeruli | Glomerular damage, Thrombotic ([2]; as Table A-8B, 2 weeks): 0±0 lesions/100 glomeruli | Glomerular damage, Total ([2]; as Table A-8B, 2 weeks): 0±0 lesions/100 glomeruli | Renal arteriopathy, Proliferative ([2]; as Table A-8B, 2 weeks): 0±0 lesions/100 glomeruli | Renal arteriopathy, Thrombotic ([2]; as Table A-8B, 2 weeks): 0±0 lesions/100 glomeruli | Renal arteriopathy, Total ([2]; as Table A-8B, 2 weeks): 0±0 lesions/100 glomeruli | tubules with ischemic retraction and simplification ([2]; captopril plus vehicle, or captopril plus angiotensin II plus eplerenone): absent

CC(=O)S[C@@H]1CC2=CC(=O)CC[C@]2(C)[C@H]2CC[C@@]3(C)[C@@H](CC[C@@]34CCC(=O)O4)[C@H]12 [Spironolactone, spironolactone, reference compound]
ABPM DBP, adjusted mean change from baseline to final visit [3]: -8.7 mm Hg | ABPM SBP, adjusted mean change from baseline to final visit [3]: -15.8 mm Hg | Cuff DBP, adjusted mean change from baseline to final visit [3]: -9.5 mm Hg | Cuff SBP, adjusted mean change from baseline to final visit [3]: -16.7 mm Hg | SAP ([4]; 100 mg/kg s.c.): 171 ± 5 mmHg | SAP ([4]; 200 mg/kg s.c.): 170 ± 9 mmHg | morbidity and mortality [5]: reduced morbidity and mortality

CCOC(=O)[C@H](CCc1ccccc1)N[C@@H](C)C(=O)N1CCC[C@H]1C(=O)O [enalapril]
reduction of mortality at one year [6]: 31%
